Data published in patent US20260028326A1, “COMPOUND BASED ON ISOINDOLINE-SUBSTITUTED GLUTARIMIDE BACKBONE AND USE THEREOF” (GLUETACS THERAPEUTICS (SHANGHAI) CO., LTD., priority 2022, published 2026).

Tests used:
[1] = tested on: CCRF-CEM cells; test: Tumor cell proliferation IC50 (CCK-8), CCRF-CEM; conditions: Homo sapiens, 96 h, read-out: IC50 for inhibiting the proliferation of tumor cells, CCRF-CEM;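 note: cell viability measured with CCK-8 reagent after compound treatment, IC50 taken from plotted growth inhibition curves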
[2] = molecular target: human Cereblon WT GST-tagged protein (Homo sapiens (Human), UniProt Q96SW2); test: CRBN-binding affinity, HTRF (CEREBLON BINDING kit)
How it was run: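 GST-tagged human WT Cereblon incubated with compound, then Thalidomide-Re tracer and anti-GST Eu antibody added. Displacement read by HTRF, reported as CRBN binding inhibition rate against blank control wells without protein.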

[3] = tested on: MM.1S cells; test: Tumor cell proliferation IC50 (CCK-8), MM.1S; conditions: Homo sapiens, MM1.S, 72 h, read-out: IC50 for inhibiting the proliferation of tumor cells, MM.1S;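 note: viability of cultured cells read by CCK-8 reagent after compound exposure, growth inhibition curves fitted to derive IC50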
[4] = molecular target: IKZF1 protein (Homo sapiens (Human), UniProt Q13422+Q96SW2); test: Western-blot assay of substrate protein degradation in hPBMC, IKZF1; assay type: cell-based; conditions: for residual substrate protein level, IKZF1: hPBMC cells, compound 500 nM, 24 hours, Western blot
[5] = molecular target: GSPT1 protein (Homo sapiens (Human), UniProt P15170+Q96SW2); test: Western-blot assay of substrate protein degradation in hPBMC, GSPT1; assay type: cell-based; conditions: for residual substrate protein level, GSPT1: hPBMC cells, compound 500 nM, 24 hours, Western blot
[6] = molecular target: IKZF3 protein (Homo sapiens (Human), UniProt Q96SW2+Q9UKT9); test: Western-blot assay of substrate protein degradation in hPBMC, IKZF3; assay type: cell-based; conditions: for residual substrate protein level, IKZF3: hPBMC cells, compound 500 nM, 24 hours, Western blot
[7] = tested on: Mino cells; test: Tumor cell proliferation IC50 (CCK-8), Mino; conditions: Homo sapiens, 72 h, read-out: IC50 for inhibiting the proliferation of tumor cells, Mino;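 note: cell viability assessed with CCK-8 reagent after compound exposure, IC50 derived from plotted growth inhibition curves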
[8] = tested on: Daudi cells; test: Tumor cell proliferation IC50 (CCK-8), Daudi; conditions: Homo sapiens, read-out: IC50 for inhibiting the proliferation of tumor cells, Daudi;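 note: cell viability read with CCK-8 reagent after compound exposure of Daudi cells, IC50 derived from plotted growth inhibition curves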
Experimental: The tumor cells used herein were cultured in a cell culture medium listed in table A at 37° C. in an incubator with 5% CO2.
After the cells were treated with the compounds of the present disclosure for a period of time, the cell viability detection reagent was added to the culture medium for cell viability assessment according to the instructions provided with the CCK-8 kit. […] The growth inhibition of the compounds of the present disclosure on cells was plotted by Prism Graphpad software, and the IC50 values of the compounds of the present disclosure were calculated therefrom.

[9] = hPBMC, 24 h, serially diluted 0.03-1000 nM

Chain of IKZF1 protein (Q13422 whole entry): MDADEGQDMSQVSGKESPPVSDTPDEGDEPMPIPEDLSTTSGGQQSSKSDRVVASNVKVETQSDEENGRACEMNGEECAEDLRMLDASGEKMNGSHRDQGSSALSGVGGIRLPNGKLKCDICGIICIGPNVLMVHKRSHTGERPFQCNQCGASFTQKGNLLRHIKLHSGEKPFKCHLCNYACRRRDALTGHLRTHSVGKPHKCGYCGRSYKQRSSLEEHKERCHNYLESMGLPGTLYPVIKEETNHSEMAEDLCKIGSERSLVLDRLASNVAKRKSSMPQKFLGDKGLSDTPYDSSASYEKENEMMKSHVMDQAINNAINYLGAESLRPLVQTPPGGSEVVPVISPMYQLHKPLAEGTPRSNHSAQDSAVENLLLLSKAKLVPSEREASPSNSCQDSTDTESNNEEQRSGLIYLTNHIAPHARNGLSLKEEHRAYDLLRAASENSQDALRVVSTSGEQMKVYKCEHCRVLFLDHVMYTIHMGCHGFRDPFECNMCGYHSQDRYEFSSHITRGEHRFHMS
Chain of IKZF1 protein (Q96SW2 whole entry): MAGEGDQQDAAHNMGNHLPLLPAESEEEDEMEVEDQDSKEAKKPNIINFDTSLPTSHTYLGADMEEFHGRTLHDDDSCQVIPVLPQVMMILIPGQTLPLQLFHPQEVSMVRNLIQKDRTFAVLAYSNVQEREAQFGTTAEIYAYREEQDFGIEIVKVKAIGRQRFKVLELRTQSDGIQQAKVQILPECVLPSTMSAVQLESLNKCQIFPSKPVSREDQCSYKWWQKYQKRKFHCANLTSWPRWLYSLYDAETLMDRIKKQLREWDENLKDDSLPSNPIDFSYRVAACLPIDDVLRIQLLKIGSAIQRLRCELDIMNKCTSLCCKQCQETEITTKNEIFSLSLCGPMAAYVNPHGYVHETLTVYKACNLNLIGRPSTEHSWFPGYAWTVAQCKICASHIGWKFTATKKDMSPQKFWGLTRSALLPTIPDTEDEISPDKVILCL
Chain of IKZF1 protein (Q16531 whole entry partner): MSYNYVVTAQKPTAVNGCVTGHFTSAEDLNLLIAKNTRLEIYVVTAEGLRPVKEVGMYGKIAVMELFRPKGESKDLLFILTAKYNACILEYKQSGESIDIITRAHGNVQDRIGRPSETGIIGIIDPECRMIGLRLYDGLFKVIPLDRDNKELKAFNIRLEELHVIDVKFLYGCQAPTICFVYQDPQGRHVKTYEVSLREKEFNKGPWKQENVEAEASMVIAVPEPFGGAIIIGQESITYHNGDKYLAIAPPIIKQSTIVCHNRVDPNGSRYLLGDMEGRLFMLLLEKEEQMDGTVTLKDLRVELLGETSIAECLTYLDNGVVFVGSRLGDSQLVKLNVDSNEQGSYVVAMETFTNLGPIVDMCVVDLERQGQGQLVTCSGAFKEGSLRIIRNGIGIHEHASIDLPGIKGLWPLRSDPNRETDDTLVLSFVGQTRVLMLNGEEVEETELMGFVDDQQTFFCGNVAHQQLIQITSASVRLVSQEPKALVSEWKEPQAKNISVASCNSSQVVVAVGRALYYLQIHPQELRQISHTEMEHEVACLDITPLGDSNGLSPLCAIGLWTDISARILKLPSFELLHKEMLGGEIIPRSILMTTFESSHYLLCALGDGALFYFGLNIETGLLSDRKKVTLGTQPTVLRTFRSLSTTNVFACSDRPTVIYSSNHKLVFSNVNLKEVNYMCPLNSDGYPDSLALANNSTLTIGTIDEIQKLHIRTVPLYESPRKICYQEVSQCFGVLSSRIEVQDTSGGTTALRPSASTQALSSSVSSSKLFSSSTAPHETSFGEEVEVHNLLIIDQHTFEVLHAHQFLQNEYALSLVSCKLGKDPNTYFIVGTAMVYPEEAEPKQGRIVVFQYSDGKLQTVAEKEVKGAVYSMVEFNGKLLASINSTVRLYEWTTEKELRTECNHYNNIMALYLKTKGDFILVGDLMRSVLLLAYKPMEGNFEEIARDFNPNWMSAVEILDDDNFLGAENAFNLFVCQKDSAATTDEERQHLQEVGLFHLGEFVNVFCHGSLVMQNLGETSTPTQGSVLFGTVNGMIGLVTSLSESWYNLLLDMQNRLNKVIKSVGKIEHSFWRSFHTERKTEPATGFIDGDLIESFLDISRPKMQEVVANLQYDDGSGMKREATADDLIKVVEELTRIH
Chain of IKZF3 protein (Q9UKT9 whole entry): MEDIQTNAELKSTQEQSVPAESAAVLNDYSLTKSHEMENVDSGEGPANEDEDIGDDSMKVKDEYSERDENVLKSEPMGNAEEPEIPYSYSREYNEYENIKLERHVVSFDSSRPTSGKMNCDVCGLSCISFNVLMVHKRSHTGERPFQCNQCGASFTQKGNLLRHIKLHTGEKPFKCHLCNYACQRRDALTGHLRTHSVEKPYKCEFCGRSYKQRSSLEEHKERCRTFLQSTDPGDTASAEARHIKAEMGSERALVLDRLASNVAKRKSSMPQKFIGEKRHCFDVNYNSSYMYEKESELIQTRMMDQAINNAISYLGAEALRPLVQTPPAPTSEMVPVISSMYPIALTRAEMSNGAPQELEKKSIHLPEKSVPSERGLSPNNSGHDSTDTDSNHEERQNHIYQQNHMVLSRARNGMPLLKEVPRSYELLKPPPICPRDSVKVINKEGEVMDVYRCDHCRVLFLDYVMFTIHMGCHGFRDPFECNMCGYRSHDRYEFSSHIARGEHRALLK
Chain of IKZF3 protein (Q96SW2 whole entry): as the sequence (Q96SW2 whole entry) above
Chain of IKZF3 protein (Q16531 whole entry partner): as the sequence (Q16531 whole entry partner) above
Chain of human Cereblon WT GST-tagged protein (Q96SW2 whole entry): as the sequence (Q96SW2 whole entry) above
Chain of GSPT1 protein (P15170 whole entry): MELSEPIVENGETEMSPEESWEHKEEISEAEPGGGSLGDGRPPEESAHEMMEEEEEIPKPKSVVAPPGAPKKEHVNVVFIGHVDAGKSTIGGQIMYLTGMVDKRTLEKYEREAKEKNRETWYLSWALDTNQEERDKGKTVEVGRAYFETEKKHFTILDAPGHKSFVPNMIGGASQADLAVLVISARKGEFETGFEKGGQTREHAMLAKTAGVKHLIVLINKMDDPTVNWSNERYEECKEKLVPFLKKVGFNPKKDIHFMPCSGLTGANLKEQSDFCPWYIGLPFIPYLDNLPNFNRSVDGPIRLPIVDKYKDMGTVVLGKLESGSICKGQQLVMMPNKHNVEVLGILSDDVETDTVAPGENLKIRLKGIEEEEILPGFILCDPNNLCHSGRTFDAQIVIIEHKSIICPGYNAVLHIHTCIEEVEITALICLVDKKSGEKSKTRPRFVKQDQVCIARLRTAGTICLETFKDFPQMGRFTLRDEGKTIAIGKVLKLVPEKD
Chain of GSPT1 protein (Q96SW2 whole entry): as the sequence (Q96SW2 whole entry) above
Chain of GSPT1 protein (Q16531 whole entry partner): as the sequence (Q16531 whole entry partner) above

Structure (SMILES) | IC50 [1] | IC50 [2] | IC50 [3] | residual substrate protein level, IKZF1 [4] | concentration at which significant degradation effects on IKZF1 protein are exhibited (FIG. 1) [4, 9] | residual substrate protein level, GSPT1 [5] | concentration at which significant degradation effects on GSPT1 protein are exhibited (FIG. 1) [5, 9] | residual substrate protein level, IKZF3 [6] | concentration at which significant degradation effects on IKZF3 protein are exhibited (FIG. 1) [6, 9] | IC50 [7] | IC50 [8]
O=C1CCC(N2Cc3cc(CN4CCN(Cc5ccc(-c6ccc(Cl)cc6)cc5)CC4)ccc3C2=O)C(=O)N1 (stereo not drawn) [GT-05598, 3-(5-((4-((4′-chloro-[1,1′-biphenyl]-4-yl)methyl)piperazin-1-yl)methyl)-1-oxoisoindolin-2-yl)piperidine-2,6-dione] | 500 to 1000 nM | 680 nM | 50 to 100 nM | A (A represents a residual substrate protein level of <50%) | < 3 nM | B (B represents a residual substrate protein level of >50%) | < 3 nM | A (A represents a residual substrate protein level of <50%) | < 3 nM | 10 to 50 nM | 500 to 1000 nM
CC1(C)CCC(CN2CCN(Cc3ccc4c(c3)CN(C3CCC(=O)NC3=O)C4=O)CC2)=C(c2cccs2)C1 (stereo not drawn) [GT-05847, 3-(5-((4-((4,4-dimethyl-2-(thiophen-2-yl)cyclohex-1-en-1-yl)methyl)piperazin-1-yl)methyl)-1-oxoisoindolin-2-yl)piperidine-2,6-dione] | < 5 nM | 1000 nM | < 5 nM | A (A represents a residual substrate protein level of <50%) |  | A (A represents a residual substrate protein level of <50%) |  | A (A represents a residual substrate protein level of <50%) |  | < 5 nM | 10 to 50 nM
O=C1CCC(N2Cc3cc(CN4CCN(Cc5ncccc5-c5ccc(Cl)cc5)CC4)ccc3C2=O)C(=O)N1 (stereo not drawn) [GT-05778, 3-(5-((4-((3-(4-chlorophenyl)pyridin-2-yl)methyl)piperazin-1-yl)methyl)-1-oxoisoindolin-2-yl)piperidine-2,6-dione] | < 5 nM | 560 nM | < 5 nM | A (A represents a residual substrate protein level of <50%) |  | A (A represents a residual substrate protein level of <50%) |  | A (A represents a residual substrate protein level of <50%) |  | < 5 nM | 5 to 10 nM
O=C1CCC(N2Cc3cc(CN4CCN(Cc5ccccc5-c5cccs5)CC4)ccc3C2=O)C(=O)N1 (stereo not drawn) [GT-05519, 3-(1-oxo-5-((4-(2-(thiophen-2-yl)benzyl)piperazin-1-yl)methyl)isoindolin-2-yl)piperidine-2,6-dione] | < 5 nM | 410 nM | < 5 nM | A (A represents a residual substrate protein level of <50%) |  | A (A represents a residual substrate protein level of <50%) |  | A (A represents a residual substrate protein level of <50%) |  | < 5 nM | 5 to 10 nM
O=C1CCC(N2Cc3cc(NC4CN(Cc5ccccc5-c5ccc(Cl)cc5)C4)ccc3C2=O)C(=O)N1 (stereo not drawn) [GT-05382, 3-(5-((1-((4′-chloro-[1,1′-biphenyl]-2-yl)methyl)azetidin-3-yl)amino)-1-oxoisoindolin-2-yl)piperidine-2,6-dione] | 100 to 500 nM | 660 nM | 10 to 50 nM | A (A represents a residual substrate protein level of <50%) |  | A (A represents a residual substrate protein level of <50%) |  | A (A represents a residual substrate protein level of <50%) |  | 10 to 50 nM | 100 to 500 nM
O=C1CCC(N2Cc3cc(CN4CCN(Cc5ccccc5-c5ccc(F)cc5)CC4)c(F)cc3C2=O)C(=O)N1 (stereo not drawn) [GT-05603, 3-(6-fluoro-5-((4-((4′-fluoro-[1,1′-biphenyl]-2-yl)methyl)piperazin-1-yl)methyl)-1-oxoisoindolin-2-yl)piperidine-2,6-dione] | 2.5 nM | 940 nM | < 5 nM | A (A represents a residual substrate protein level of <50%) |  | A (A represents a residual substrate protein level of <50%) |  | A (A represents a residual substrate protein level of <50%) |  | < 5 nM | 5 to 10 nM
O=C1CCC(N2Cc3cc(CN4CCN(C(=O)c5ccccc5-c5ccc(Cl)cc5)CC4)c(F)cc3C2=O)C(=O)N1 (stereo not drawn) [GT-05650, 3-(5-((4-(4′-chloro-[1,1′-biphenyl]-2-carbonyl)piperazin-1-yl)methyl)-6-fluoro-1-oxoisoindolin-2-yl)piperidine-2,6-dione] | 10 to 50 nM | 940 nM | 10 to 50 nM | A (A represents a residual substrate protein level of <50%) |  | A (A represents a residual substrate protein level of <50%) |  | A (A represents a residual substrate protein level of <50%) |  | 50 to 100 nM | 100 to 500 nM
CC1(C)CCC(C(=O)N2CC3(CN(Cc4ccc5c(c4)CN(C4CCC(=O)NC4=O)C5=O)C3)C2)=C(c2ccc(F)cc2)C1 (stereo not drawn) [GT-05664, 3-(5-((6-(4′-fluoro-5,5-dimethyl-3,4,5,6-tetrahydro-[1,1′-biphenyl]-2-carbonyl)-2,6-diazaspiro[3.3]heptan-2-yl)methyl)-1-oxoisoindolin-2-yl)piperidine-2,6-dione] | 10 to 50 nM | 560 nM | 10 to 50 nM | A (A represents a residual substrate protein level of <50%) |  | A (A represents a residual substrate protein level of <50%) |  | A (A represents a residual substrate protein level of <50%) |  | 10 to 50 nM | 100 to 500 nM
O=C1CCC(N2Cc3cc(CN4CCN(Cc5ccccc5-c5ccco5)CC4)ccc3C2=O)C(=O)N1 (stereo not drawn) [GT-05779, 3-(5-((4-(2-(furan-2-yl)benzyl)piperazin-1-yl)methyl)-1-oxoisoindolin-2-yl)piperidine-2,6-dione] | 5 to 10 nM | 430 nM | 5 to 10 nM | A (A represents a residual substrate protein level of <50%) |  | A (A represents a residual substrate protein level of <50%) |  | A (A represents a residual substrate protein level of <50%) |  | 5 to 10 nM | 50 to 100 nM
O=C1CCC(N2Cc3cc(CN4CCN(C(=O)c5ccccc5-c5ccc(Cl)cc5)CC4C(F)(F)F)ccc3C2=O)C(=O)N1 (stereo not drawn) [GT-05789, 3-(5-((4-(4′-chloro-[1,1′-biphenyl]-2-carbonyl)-2-(trifluoromethyl)piperazin-1-yl)methyl)-1-oxoisoindolin-2-yl)piperidine-2,6-dione] | 10 to 50 nM | 520 nM | 10 to 50 nM | B (B represents a residual substrate protein level of >50%) |  | A (A represents a residual substrate protein level of <50%) |  | B (B represents a residual substrate protein level of >50%) |  | 10 to 50 nM | 100 to 500 nM
O=C1CCC(N2Cc3cc(CN4CCN(Cc5ccccc5-c5ccc(Cl)cn5)CC4)ccc3C2=O)C(=O)N1 (stereo not drawn) [GT-05860, 3-(5-((4-(2-(5-chloropyridin-2-yl)benzyl)piperazin-1-yl)methyl)-1-oxoisoindolin-2-yl)piperidine-2,6-dione] | 5 to 10 nM | 560 nM | < 5 nM | A (A represents a residual substrate protein level of <50%) |  | A (A represents a residual substrate protein level of <50%) |  | A (A represents a residual substrate protein level of <50%) |  | 5 to 10 nM | 10 to 50 nM
O=C1CCC(N2Cc3c(ccc(CN4CCN(Cc5ccccc5-c5ccc(F)cc5)CC4)c3F)C2=O)C(=O)N1 (stereo not drawn) [GT-05602, 3-(4-fluoro-5-((4-((4′-fluoro-[1,1′-biphenyl]-2-yl)methyl)piperazin-1-yl)methyl)-1-oxoisoindolin-2-yl)piperidine-2,6-dione] | < 5 nM | 560 nM | < 5 nM | A (A represents a residual substrate protein level of <50%) |  | A (A represents a residual substrate protein level of <50%) |  | A (A represents a residual substrate protein level of <50%) |  | < 5 nM | 5 to 10 nM
